Data published in PMC7265341, “Quantifying CDK inhibitor selectivity in live cells” (Nature Communications, 2020).
Where two headings read alike, the source gives them in different places.

Tests used:
[1] = biological target: CDK2/Cyclin E1 (Homo sapiens, UniProt P24941); test: NanoBRET live-cell target engagement, CDK2-NanoLuc/Cyclin E1 in HEK-293; format: binding
[2] = biological target: CDK7 (Homo sapiens, UniProt P50613); test: NanoBRET live-cell target engagement, NanoLuc-CDK7 in HEK-293; format: binding; details: CDK7, 10µM
[3] = biological target: CDK8/Cyclin C (Homo sapiens, UniProt P49336); test: NanoBRET live-cell target engagement, NanoLuc-CDK8/Cyclin C in HEK-293; format: binding; details: CDK8/C, 10µM
[4] = biological target: CDK9/Cyclin K (Homo sapiens, UniProt P50750); test: NanoBRET live-cell target engagement, NanoLuc-CDK9/Cyclin K in HEK-293; format: binding; details: CDK9/K, 10µM
[5] = biological target: CDK12/Cyclin K (Homo sapiens, UniProt Q9NYV4); test: NanoBRET live-cell target engagement, CDK12-NanoLuc/Cyclin K in HEK-293; format: binding; details: CDK12/K, 10µM
[6] = biological target: CDK13/Cyclin K (Homo sapiens, UniProt Q14004); test: NanoBRET live-cell target engagement, CDK13-NanoLuc/Cyclin K in HEK-293; format: binding; details: CDK13/K, 10µM
[7] = biological target: CDK20/Cyclin H (Homo sapiens, UniProt Q8IZL9); test: NanoBRET live-cell target engagement, NanoLuc-CDK20/Cyclin H in HEK-293; format: binding; details: CDK20/H, 10µM
[8] = biological target: CDK19/Cyclin C (Homo sapiens, UniProt Q9BWU1); test: NanoBRET live-cell target engagement, NanoLuc-CDK19/Cyclin C in HEK-293; details: 10µM
[9] = biological target: CDK10/Cyclin L2 (Homo sapiens, UniProt Q15131); test: NanoBRET live-cell target engagement, CDK10-NanoLuc/Cyclin L2 in HEK-293; details: 10µM
[10] = average of replicates, read-out: Inhibition at 10µM (%) Average
[11] = read-out: Inhibition at 10µM (%) Replicate 1
[12] = read-out: Inhibition at 10µM (%) Replicate 2

Chain of CDK12/Cyclin K (Q9NYV4 1-1481 isoform Q9NYV4-2): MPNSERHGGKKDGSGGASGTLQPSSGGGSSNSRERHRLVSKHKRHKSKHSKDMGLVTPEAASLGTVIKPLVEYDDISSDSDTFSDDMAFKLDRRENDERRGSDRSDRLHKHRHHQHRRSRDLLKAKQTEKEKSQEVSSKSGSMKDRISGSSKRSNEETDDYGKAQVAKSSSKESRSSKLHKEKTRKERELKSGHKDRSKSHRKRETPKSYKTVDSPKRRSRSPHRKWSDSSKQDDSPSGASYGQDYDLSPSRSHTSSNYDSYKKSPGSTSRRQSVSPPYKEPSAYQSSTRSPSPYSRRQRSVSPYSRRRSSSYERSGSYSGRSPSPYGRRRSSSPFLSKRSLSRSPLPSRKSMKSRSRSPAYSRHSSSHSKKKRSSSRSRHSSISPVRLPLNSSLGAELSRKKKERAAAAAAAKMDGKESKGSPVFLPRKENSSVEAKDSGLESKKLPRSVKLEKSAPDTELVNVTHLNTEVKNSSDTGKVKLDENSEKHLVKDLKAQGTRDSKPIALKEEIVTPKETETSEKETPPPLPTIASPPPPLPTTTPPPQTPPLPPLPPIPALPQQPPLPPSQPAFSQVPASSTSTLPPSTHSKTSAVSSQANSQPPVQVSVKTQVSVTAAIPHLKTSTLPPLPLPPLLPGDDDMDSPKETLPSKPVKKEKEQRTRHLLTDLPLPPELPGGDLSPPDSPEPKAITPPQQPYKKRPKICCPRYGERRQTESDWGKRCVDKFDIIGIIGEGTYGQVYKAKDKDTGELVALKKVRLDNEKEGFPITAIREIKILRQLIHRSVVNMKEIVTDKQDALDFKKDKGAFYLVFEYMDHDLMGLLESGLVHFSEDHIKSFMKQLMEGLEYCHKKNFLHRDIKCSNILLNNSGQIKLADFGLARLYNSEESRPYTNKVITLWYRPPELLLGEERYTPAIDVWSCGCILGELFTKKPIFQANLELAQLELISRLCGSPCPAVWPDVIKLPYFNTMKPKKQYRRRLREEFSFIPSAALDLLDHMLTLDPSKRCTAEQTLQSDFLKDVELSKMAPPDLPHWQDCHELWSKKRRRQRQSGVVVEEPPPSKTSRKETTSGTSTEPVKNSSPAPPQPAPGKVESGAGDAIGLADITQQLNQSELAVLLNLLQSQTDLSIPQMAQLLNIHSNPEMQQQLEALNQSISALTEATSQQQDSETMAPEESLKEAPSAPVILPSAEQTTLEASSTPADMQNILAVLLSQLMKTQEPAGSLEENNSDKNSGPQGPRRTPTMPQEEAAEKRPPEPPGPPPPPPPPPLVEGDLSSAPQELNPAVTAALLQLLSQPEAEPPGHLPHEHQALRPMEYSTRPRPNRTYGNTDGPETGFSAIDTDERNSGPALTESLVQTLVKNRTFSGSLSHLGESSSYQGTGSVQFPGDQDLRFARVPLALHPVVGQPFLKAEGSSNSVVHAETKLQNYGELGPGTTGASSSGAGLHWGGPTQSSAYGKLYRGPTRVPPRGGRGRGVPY
Chain of CDK12/Cyclin K (O75909 whole entry partner): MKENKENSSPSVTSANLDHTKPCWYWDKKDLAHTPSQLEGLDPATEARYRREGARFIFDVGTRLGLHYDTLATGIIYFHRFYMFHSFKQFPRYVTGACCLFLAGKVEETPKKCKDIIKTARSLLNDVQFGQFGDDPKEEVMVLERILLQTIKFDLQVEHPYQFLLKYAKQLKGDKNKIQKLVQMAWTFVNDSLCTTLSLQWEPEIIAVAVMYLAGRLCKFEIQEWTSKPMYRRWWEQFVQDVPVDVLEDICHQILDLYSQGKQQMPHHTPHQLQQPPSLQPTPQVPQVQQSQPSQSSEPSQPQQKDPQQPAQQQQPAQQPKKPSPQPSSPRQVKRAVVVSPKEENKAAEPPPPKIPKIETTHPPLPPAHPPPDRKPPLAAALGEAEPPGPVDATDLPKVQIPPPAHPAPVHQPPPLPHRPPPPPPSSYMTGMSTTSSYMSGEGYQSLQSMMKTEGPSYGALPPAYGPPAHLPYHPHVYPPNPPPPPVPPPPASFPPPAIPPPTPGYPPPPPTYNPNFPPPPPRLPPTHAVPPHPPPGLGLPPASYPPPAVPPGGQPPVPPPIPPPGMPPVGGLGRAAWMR
Chain of CDK13/Cyclin K (O75909 whole entry): as the sequence (O75909 whole entry partner) above
Chain of CDK13/Cyclin K (Q14004 other isoform, or with tags, fused parts or gaps): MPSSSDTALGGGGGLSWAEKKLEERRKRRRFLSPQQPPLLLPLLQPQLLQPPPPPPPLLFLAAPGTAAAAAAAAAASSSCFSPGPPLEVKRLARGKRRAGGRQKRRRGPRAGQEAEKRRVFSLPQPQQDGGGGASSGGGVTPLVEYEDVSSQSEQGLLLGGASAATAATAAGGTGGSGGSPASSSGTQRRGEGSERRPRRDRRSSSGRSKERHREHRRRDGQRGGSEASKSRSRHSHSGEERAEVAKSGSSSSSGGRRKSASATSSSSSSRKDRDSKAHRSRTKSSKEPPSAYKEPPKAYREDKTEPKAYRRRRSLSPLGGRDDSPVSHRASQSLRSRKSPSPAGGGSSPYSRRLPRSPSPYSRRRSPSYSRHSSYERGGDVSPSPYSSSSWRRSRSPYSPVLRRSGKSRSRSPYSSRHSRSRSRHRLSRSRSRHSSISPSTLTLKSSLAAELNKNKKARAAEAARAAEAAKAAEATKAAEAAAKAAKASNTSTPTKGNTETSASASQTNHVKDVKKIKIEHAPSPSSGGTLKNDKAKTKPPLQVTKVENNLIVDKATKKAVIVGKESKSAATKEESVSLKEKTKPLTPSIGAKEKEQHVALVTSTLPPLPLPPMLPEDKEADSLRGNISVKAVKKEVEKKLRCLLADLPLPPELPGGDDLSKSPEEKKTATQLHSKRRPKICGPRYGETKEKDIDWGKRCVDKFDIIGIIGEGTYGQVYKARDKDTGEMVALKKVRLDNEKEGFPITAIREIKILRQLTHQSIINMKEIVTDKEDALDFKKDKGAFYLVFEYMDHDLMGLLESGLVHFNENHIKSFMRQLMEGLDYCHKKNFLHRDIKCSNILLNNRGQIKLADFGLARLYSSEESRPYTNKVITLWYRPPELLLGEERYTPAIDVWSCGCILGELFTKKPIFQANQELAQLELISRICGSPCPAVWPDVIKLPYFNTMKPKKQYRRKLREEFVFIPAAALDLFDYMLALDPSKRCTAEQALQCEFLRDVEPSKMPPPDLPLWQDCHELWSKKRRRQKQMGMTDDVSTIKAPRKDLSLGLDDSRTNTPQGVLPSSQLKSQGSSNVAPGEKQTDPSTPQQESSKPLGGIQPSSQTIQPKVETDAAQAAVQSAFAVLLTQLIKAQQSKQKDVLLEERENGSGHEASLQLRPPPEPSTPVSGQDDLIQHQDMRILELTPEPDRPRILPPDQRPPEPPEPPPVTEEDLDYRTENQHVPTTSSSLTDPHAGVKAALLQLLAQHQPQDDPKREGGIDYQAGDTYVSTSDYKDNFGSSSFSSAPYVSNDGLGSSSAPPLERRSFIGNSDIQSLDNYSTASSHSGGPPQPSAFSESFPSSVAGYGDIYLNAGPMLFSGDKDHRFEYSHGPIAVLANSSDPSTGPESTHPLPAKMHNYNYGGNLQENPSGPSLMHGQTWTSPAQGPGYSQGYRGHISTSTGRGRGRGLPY
Chain of CDK10/Cyclin L2 (Q15131 whole entry): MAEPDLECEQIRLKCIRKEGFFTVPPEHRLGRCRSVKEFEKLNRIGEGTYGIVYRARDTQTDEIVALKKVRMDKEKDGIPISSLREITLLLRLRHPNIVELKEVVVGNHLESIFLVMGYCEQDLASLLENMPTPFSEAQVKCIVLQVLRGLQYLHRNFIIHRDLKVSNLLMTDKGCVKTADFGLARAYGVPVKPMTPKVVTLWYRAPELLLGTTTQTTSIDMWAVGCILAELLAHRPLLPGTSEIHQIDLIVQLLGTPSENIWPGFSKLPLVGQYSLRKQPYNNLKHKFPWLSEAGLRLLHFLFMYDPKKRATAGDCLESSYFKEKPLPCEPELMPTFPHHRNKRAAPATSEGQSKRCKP
Chain of CDK7 (P50613 whole entry): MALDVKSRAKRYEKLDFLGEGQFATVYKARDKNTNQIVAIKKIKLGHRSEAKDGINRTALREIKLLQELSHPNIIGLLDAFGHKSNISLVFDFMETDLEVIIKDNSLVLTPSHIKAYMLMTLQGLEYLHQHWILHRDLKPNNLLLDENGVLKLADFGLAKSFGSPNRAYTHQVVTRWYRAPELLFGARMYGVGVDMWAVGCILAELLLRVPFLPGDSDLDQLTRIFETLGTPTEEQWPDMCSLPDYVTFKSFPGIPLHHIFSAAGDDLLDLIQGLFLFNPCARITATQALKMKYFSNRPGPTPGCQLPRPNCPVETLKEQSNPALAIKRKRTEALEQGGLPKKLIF
Chain of CDK8/Cyclin C (P49336 whole entry): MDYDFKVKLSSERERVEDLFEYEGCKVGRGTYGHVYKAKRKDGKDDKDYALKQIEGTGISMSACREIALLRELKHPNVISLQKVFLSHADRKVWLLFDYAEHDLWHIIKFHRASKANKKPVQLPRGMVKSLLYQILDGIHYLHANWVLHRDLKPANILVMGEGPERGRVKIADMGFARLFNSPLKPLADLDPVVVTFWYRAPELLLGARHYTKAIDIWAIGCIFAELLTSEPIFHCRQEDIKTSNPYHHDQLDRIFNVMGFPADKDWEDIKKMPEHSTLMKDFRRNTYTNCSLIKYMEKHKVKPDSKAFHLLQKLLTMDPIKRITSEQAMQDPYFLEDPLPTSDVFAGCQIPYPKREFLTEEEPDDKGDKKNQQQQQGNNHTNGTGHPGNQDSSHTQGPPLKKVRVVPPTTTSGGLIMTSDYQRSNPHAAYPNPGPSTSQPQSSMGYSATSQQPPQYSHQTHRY
Chain of CDK8/Cyclin C (P24863 whole entry partner): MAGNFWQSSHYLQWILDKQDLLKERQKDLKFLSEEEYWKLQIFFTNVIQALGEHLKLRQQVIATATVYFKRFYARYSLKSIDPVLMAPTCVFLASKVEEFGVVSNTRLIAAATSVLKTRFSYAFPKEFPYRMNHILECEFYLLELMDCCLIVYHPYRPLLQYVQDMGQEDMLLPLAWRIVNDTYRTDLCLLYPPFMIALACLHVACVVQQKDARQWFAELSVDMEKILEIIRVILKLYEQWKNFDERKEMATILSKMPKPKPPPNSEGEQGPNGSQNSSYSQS

SMILES: CC[C@H](CO)Nc1nc(Nc2cccc(-c3ccccn3)c2)c2ncn(C(C)C)c2n1 [(R) - DRF053]
- IC50 ([1]; CDK2/E1, n=3 average ± SEM, n=2 average to 2 significant figures, read-out: IC50 (nM) Average*): 410 nM
- IC50 ([1]; CDK2/E1, read-out: IC50 (nM) Replicate 1): 370 nM
- IC50 ([1]; CDK2/E1, read-out: IC50 (nM) Replicate 2): 450 nM

SMILES: CC[C@H](CO)Nc1nc(Nc2cccc(-c3ccccn3)c2)c2ncn(C(C)C)c2n1 [(R)-DRF053]
- IC50 ([1]; live HEK-293, 2 h, mean ± S.E.M. (n=3) or mean (n=2), read-out: IC50 for CDK/cyclin complexes, CDK2/E1): 410 nM

SMILES: O=C(NC1CCNCC1)c1[nH]ncc1NC(=O)c1c(Cl)cccc1Cl [AT7519]
- inhibition at 10 µM [2, 10]: 87.6%
- inhibition at 10 µM [2, 11]: 89.4%
- inhibition at 10 µM [2, 12]: 85.8%
- inhibition at 10 µM [3, 10]: 29.8%
- inhibition at 10 µM [3, 11]: 34.8%
- inhibition at 10 µM [3, 12]: 24.8%
- inhibition at 10 µM [4, 10]: 98.6%
- inhibition at 10 µM [4, 11]: 98%
- inhibition at 10 µM [4, 12]: 99.2%
- inhibition at 10 µM [5, 10]: 52.7%
- inhibition at 10 µM [5, 11]: 52.9%
- inhibition at 10 µM [5, 12]: 52.5%
- inhibition at 10 µM [6, 10]: 47.1%
- inhibition at 10 µM [6, 11]: 44.4%
- inhibition at 10 µM [6, 12]: 49.7%
- inhibition at 10 µM [7, 11]: 30%
- inhibition at 10 µM [7, 12]: 39.7%
- inhibition at 10 µM ([8]; read-out: Inhibition at 10µM (%) Average, CDK19/C, average of replicates): 41.9%
- inhibition at 10 µM ([8]; read-out: Inhibition at 10µM (%) Replicate 1, CDK19/C): 45.9%
- inhibition at 10 µM ([8]; read-out: Inhibition at 10µM (%) Replicate 2, CDK19/C): 37.9%
- inhibition at 10 µM ([9]; read-out: Inhibition at 10µM (%) Average, CDK10/L2, average of replicates): 77%
- inhibition at 10 µM ([9]; read-out: Inhibition at 10µM (%) Replicate 1, CDK10/L2): 77.8%
- inhibition at 10 µM ([9]; read-out: Inhibition at 10µM (%) Replicate 2, CDK10/L2): 76.2%
